system: male C57BL/6 mice; assay: 55° C. warm-water tail-flick test (antinociception); format: in vivo; conditions: Mus musculus, sc, 0.5 h, compounds of Table I; s.c.; 30 min; 55° C. water; configuration tested as in Table II; read-out: ED50 (mg/kg) at 30 min on C57BL/6 mice in Warm-water Tail-flick Test
In short: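 Mice with baseline tail-flick latency within 2 s at 55° C received compound s.c. and were retested at 30, 60, 90 and 120 min. % antinociception = 100×(test−control latency)/(20−control latency); ED50 in mg/kg.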

For `CC(C)(c1ccccn1)N1CC[C@](CCc2ccc(C#N)cc2)([C@@H]2CCCO2)C1` [Compound 41, 4-(2-((S)-1-(2-(pyridin-2-yl)propan-2-yl)-3-((S)-tetrahydrofuran-2-yl)pyrrolidin-3-yl)ethyl) benzonitrile], which ED50 is on record?
The ED50 was no more than 30 mg/kg.

same assay, conditions: Mus musculus, sc, 0.5 h, compounds of Table V; s.c.; 30 min; 55° C. water; read-out: ED50 (mg/kg) at 30 min on C57BL/6 mice in Warm-water Tail-flick Test (same conditions as Table II)

With `CCOCC1(CCc2ccccc2)CCN(Cc2ccc(NC(=O)OC)cc2)CC1` [Compound 24] as the compound, how does the ED50 read?
The ED50 was greater than 50 mg/kg.

same assay, conditions: Mus musculus; half maximal effective dose in mice; using one of: warm water tail-flick test, spared nerve injury, chronic constriction injury, or Complete Freund's adjuvant induced inflammatory pain (not stated which per compound); read-out: Biological Activity (ED50)

For `CCOC(C(F)(F)F)(C(F)(F)F)[C@]1(CCc2ccc(F)cc2)CCN(Cc2cccnc2)C1` [Compound 14, (R)-3-((3-(2-ethoxy-1,1,1,3,3,3-hexafluoropropan-2-yl)-3-(4-fluorophenethyl)pyrrolidin-1-yl)methyl)pyridine], which ED50 is on record?
The ED50 was greater than 50 mg/kg.

For `Cc1ccc(C(C)(C)N2CC[C@](CO)(CCc3ccc(F)cc3)C2)cn1` [Compound 15, (R)-(3-(4-fluorophenethyl)-1-(2-(6-methylpyridin-3-yl)propan-2-yl)pyrrolidin-3-yl)methanol], which ED50 is on record?
Its ED50 is no more than 30 mg/kg.

How did the ED50 turn out when `Cc1ccc(C(C)(C)N2CC[C@@](CCc3ccc(F)cc3)(CS(C)(=O)=O)C2)cn1` [Compound 16, (R)-5-(2-(3-(4-fluorophenethyl)-3-((methylsulfonyl)methyl)pyrrolidin-1-yl)propan-2-yl)-2-methylpyridine] was run?
Its ED50 is no more than 30 mg/kg.

For `Cc1ccc(C(C)(C)N2CC[C@@](CCc3ccc(C#N)cc3)(COCc3ccccc3)C2)cn1` [Compound 17, (R)-4-(2-(3-((benzyloxy)methyl)-1-(2-(6-methylpyridin-3-yl)propan-2-yl)pyrrolidin-3-yl)ethyl) benzonitrile], which ED50 is on record?
The ED50 was no more than 30 mg/kg.

How did the ED50 turn out when `Cc1ccc(C(C)(C)N2CC[C@](CO)(CCc3ccc(C#N)cc3)C2)cn1` [Compound 18, (R)-4-(2-(3-(hydroxymethyl)-1-(2-(6-methylpyridin-3-yl)propan-2-yl)pyrrolidin-3-yl)ethyl) benzonitrile] was run?
Its ED50 is no more than 30 mg/kg.

How did the ED50 turn out when `Cc1ccc(C(C)(C)N2CC[C@@](CCc3ccc(C#N)cc3)(CS(C)(=O)=O)C2)cn1` [Compound 19, (R)-4-(2-(1-(2-(6-methylpyridin-3-yl)propan-2-yl)-3-((methylsulfonyl)methyl)pyrrolidin-3-yl)ethyl)benzonitrile] was run?
The ED50 was no more than 30 mg/kg.

`Cc1ccc(C(C)(C)N2CC[C@@](CCc3ccc(C#N)cc3)(COS(C)=O)C2)cn1` (stereo partly drawn) [Compound 20, ((R)-3-(4-cyanophenethyl)-1-(2-(6-methylpyridin-3-yl)propan-2-yl)pyrrolidin-3-yl)methyl methanesulfinate] was tested. Which ED50 did it give?
The ED50 was no more than 30 mg/kg.

`CCOC(C(F)(F)F)(C(F)(F)F)[C@]1(CCc2ccc(C#N)cc2)CCN(C(C)(C)c2ccns2)C1` [Compound 22, (R)-4-(2-(3-(2-ethoxy-1,1,1,3,3,3-hexafluoropropan-2-yl)-1-(2-(isothiazol-5-yl)propan-2-yl)pyrrolidin-3-yl)ethyl) benzonitrile] was tested. Which ED50 did it give?
Its ED50 is no more than 30 mg/kg.

How did the ED50 turn out when `CCOC(C(F)(F)F)(C(F)(F)F)[C@]1(COCc2ccccc2)CCN(C(C)(C)c2ccns2)C1` [Compound 23, (R)-5-(2-(3-((benzyloxy)methyl)-3-(2-ethoxy-1,1,1,3,3,3-hexafluoropropan-2-yl)pyrrolidin-1-yl)propan-2-yl)isothiazole] was run?
Its ED50 is greater than 50 mg/kg.

Which ED50 does the source give for `COC(C(F)(F)F)(C(F)(F)F)[C@]1(COCc2ccccc2)CCN(C2(c3ncon3)COC2)C1` [Compound 24] here?
Its ED50 is greater than 50 mg/kg.

`CCOC[C@]1(CCc2ccc(C#N)cc2)CCN(C(C)c2ccnnc2)C1` (stereo partly drawn) [Compound 25, 4-(2-((3R)-3-(ethoxymethyl)-1-(1-(pyridazin-4-yl)ethyl)pyrrolidin-3-yl)ethyl)benzonitrile] was tested. Which ED50 did it give?
The ED50 was no more than 30 mg/kg.

How did the ED50 turn out when `Cc1ccc(C(C)(C)N2CC[C@@](CCc3ccc(C#N)cc3)(COCC(F)(F)F)C2)cn1` [Compound 26, (R)-4-(2-(1-(2-(6-methylpyridin-3-yl)propan-2-yl)-3-((2,2,2-trifluoroethoxy)methyl)pyrrolidin-3-yl)ethyl)benzonitrile] was run?
Its ED50 is greater than 50 mg/kg.

How did the ED50 turn out when `CCOC[C@@]1(CCc2ccc(C#N)cc2)CCN(C(c2cccnc2)c2cccnc2)C1` [Compound 27, (S)-4-(2-(1-(di(pyridin-3-yl)methyl)-3-(ethoxymethyl)pyrrolidin-3-yl)ethyl) benzonitrile] was run?
The ED50 was greater than 50 mg/kg.

`CC(C)(c1ccc(C(F)(F)F)nc1)N1CC[C@@](CCc2ccc(C#N)cc2)(COCC(F)(F)F)C1` [Compound 28, (R)-4-(2-(3-((2,2,2-trifluoroethoxy)methyl)-1-(2-(6-(trifluoromethyl)pyridin-3-yl)propan-2-yl)pyrrolidin-3-yl)ethyl) benzonitrile] was tested. Which ED50 did it give?
Its ED50 is greater than 50 mg/kg.

With `CC(C)(c1ccc(S(C)(=O)=O)cc1)N1CC[C@@](CCc2ccc(F)cc2)(COCc2ccccc2)C1` [Compound 33, (R)-3-((benzyloxy)methyl)-3-(4-fluorophenethyl)-1-(2-(4-(methylsulfonyl)phenyl)propan-2-yl)pyrrolidine] as the compound, how does the ED50 read?
Its ED50 is greater than 50 mg/kg.

Which ED50 does the source give for `CCC(C)(c1ccc(S(C)(=O)=O)cc1)N1CC[C@@](CCc2ccc(F)cc2)(COCc2ccccc2)C1` (stereo partly drawn) [Compound 34, (3R)-3-((benzyloxy)methyl)-3-(4-fluorophenethyl)-1-(2-(4-(methylsulfonyl)phenyl)butan-2-yl)pyrrolidine] here?
The ED50 was greater than 50 mg/kg.

Which ED50 does the source give for `CC(C)(c1ccc(Cl)cc1)N1CC[C@](CO)(CCc2ccc(S(C)(=O)=O)cc2)C1` [Compound 35, (R)-(1-(2-(4-chlorophenyl)propan-2-yl)-3-(4-(methylsulfonyl)phenethyl)pyrrolidin-3-yl)methanol] here?
Its ED50 is greater than 50 mg/kg.

For `CC(C)(c1ccc(S(C)(=O)=O)cc1)N1CC[C@](CO)(CCc2ccc(F)cc2)C1` [Compound 36, (R)-(3-(4-fluorophenethyl)-1-(2-(4-(methylsulfonyl)phenyl)propan-2-yl)pyrrolidin-3-yl)methanol], which ED50 is on record?
The ED50 was greater than 50 mg/kg.

How did the ED50 turn out when `CC(C)(c1ccc(Cl)cc1)N1CC[C@@](CCc2ccc(S(C)(=O)=O)cc2)(COCc2ccccc2)C1` [Compound 37, (R)-3-((benzyloxy)methyl)-1-(2-(4-chlorophenyl)propan-2-yl)-3-(4-(methylsulfonyl)phenethyl) pyrrolidine] was run?
The ED50 was greater than 50 mg/kg.

Which ED50 does the source give for `CSc1ccc(C(C)(C)N2CC[C@@](CCc3ccc(F)cc3)(COCc3ccccc3)C2)cc1` [Compound 40, (R)-3-((benzyloxy)methyl)-3-(4-fluorophenethyl)-1-(2-(4-(methylthio)phenyl)propan-2-yl)pyrrolidine] here?
Its ED50 is greater than 50 mg/kg.

How did the ED50 turn out when `CC(C)(c1ccccn1)N1CC[C@](CCc2ccc(C#N)cc2)([C@@H]2CCCO2)C1` [Compound 41, 4-(2-((S)-1-(2-(pyridin-2-yl)propan-2-yl)-3-((S)-tetrahydrofuran-2-yl)pyrrolidin-3-yl)ethyl) benzonitrile] was run?
Its ED50 is greater than 50 mg/kg.

How did the ED50 turn out when `COC[C@@]1(CCc2ccc(S(C)(=O)=O)cc2)CCN(C(C)(C)c2ccc(Cl)cc2)C1` [Compound 43] was run?
Its ED50 is greater than 50 mg/kg.

`CC(C)(c1ccc(Cl)cc1)N1CC[C@@](CO)(CCc2ccc(S(C)(=O)=O)cc2)C1` [Compound 44] was tested. Which ED50 did it give?
Its ED50 is greater than 50 mg/kg.

Which ED50 does the source give for `COC[C@@]1(CCc2ccc(S(C)(=O)=O)cc2)CCN(C(C)(C)c2ccc(Cl)cn2)C1` [Compound 45] here?
Its ED50 is greater than 50 mg/kg.

With `CCOC[C@@]1(CCc2ccc(S(C)(=O)=O)cc2)CCN(C(C)(C)c2ccc(Cl)cc2)C1` [Compound 51] as the compound, how does the ED50 read?
Its ED50 is no more than 30 mg/kg.

`CC(C)(c1ccccn1)N1CC[C@](CO)(CCc2ccc(S(C)(=O)=O)cc2)C1` [Compound 53] was tested. Which ED50 did it give?
The ED50 was greater than 50 mg/kg.

How did the ED50 turn out when `COC[C@]1(CCc2ccc(C#N)cc2)CCN(C(C)(C)c2ccccn2)C1` [Compound 59] was run?
The ED50 was greater than 50 mg/kg.

How did the ED50 turn out when `CC(C)(O)[C@@]1(CCc2ccc(C#N)cc2)CCN(C(c2cccnc2)c2cccnc2)C1` [Compound 63] was run?
Its ED50 is greater than 50 mg/kg.

With `N#Cc1ccc(CC[C@]2(CO)CCN(C(c3ccc(F)cc3)c3cccnc3)C2)cc1` (some centres unmarked) [Compound 64] as the compound, how does the ED50 read?
The ED50 was greater than 50 mg/kg.

With `Cc1ccc(N(C)N2CC[C@@](CO)(CCc3ccccc3)C2)cn1` [Compound 68] as the compound, how does the ED50 read?
The ED50 was greater than 50 mg/kg.

— patent US20240383882A1 (Ecstasy LLC, priority 2020, published 2024)
